Measured values from BindingDB's records for patent US20240002391 (Biosplice Therapeutics, 2024).

Target: Dual specificity tyrosine-phosphorylation-regulated kinase 1A (Homo sapiens, UniProt Q13627)
Assay: DYRK1A kinase assay
Experimental: The mixture was allowed to incubate with the representative compounds for one hour at room temperature. All reactions were performed in duplicate. Unphosphorylated ( 0% Control ) and phosphorylated ( 100% control ) forms of Ser/Thr 18 served as control reactions. Additionally, an 11-point dose-response curve of Staurosporine (luM top) was run to serve as a positive compound control. After incubation, Development Reagent A was diluted in Development Buffer then added to the reaction and allowed to further incubate for one hour at room temperature.

Row | EC50 [nM] | SMILES
1 | 0.9 | COc1nc(N[C@H]2C[C@@](C)(NC(=O)C3(C#N)CC3)C2)nn2ccc(-c3ccc4nnn(C)c4c3)c12 [US20240002391, Compound 625]
2 | 1.3 | COc1nc(N[C@H]2C[C@@](C)(O)C2)nn2ccc(-c3ccc4nccn4c3)c12 [US20240002391, Compound 43]
3 | 18.8 | COc1nc(N[C@H]2C[C@@](C)(N)C2)nn2ccc(-c3ccc4ncnn4c3)c12 [US20240002391, Compound 189]
4 | 24.5 | Cn1nnc2ccc(-c3ccn4nc(N[C@H]5CC[C@](C)(O)CC5)nc(OC5COC5)c34)cc21 [US20240002391, Compound 631]
5 | 0.9 | COc1nc(N[C@H]2CC[C@](C)(O)CC2)nn2ccc(-c3ccc4nnn(CCF)c4c3)c12 [US20240002391, Compound 659]
6 | 2.4 | COc1nc(N[C@H]2CC[C@](C)(O)CC2)nn2cc(F)c(-c3ccc4nnn(C)c4c3)c12 [US20240002391, Compound 629]
7 | 1.3 | CCn1nnc2ccc(-c3ccn4nc(N[C@H]5CC[C@](C)(O)CC5)nc(OC)c34)cc21 [US20240002391, Compound 639]
8 | 1.3 | COc1nc(N[C@H]2C[C@@](C)(NC(C)=O)C2)nn2ccc(-c3ccc4nnn(CCF)c4c3)c12 [US20240002391, Compound 653]
9 | 0.7 | COc1nc(N[C@H]2C[C@]3(CCN3CC(F)F)C2)nn2ccc(-c3ccc4nccnc4c3)c12 [US20240002391, Compound 1099]
10 | 4.5 | COc1nc(N[C@H]2CC[C@@](C)(O)CC2)nn2ccc(-c3ccc4nnn(CCF)c4c3)c12 [US20240002391, Compound 658]
11 | 3.2 | COc1nc(N[C@H]2C[C@](C)(O)C2)nn2ccc(-c3ccc4nccn4c3)c12 [US20240002391, Compound 44]
